Test results as given in ChEMBL document CHEMBL1131581, “4H-1,2,4-Pyridothiadiazine 1,1-dioxides and 2,3-dihydro-4H-1,2, 4-pyridothiadiazine 1,1-dioxides chemically related to diazoxide and cyclothiazide as powerful positive allosteric modulators of (R/S)-2-amino-3-(3-hydroxy-5-methylisoxazol-4-yl)propionic acid receptors: design, synthesis, …” (J Med Chem, 1998).

Legend:
[1] = target: T1, Glutamate receptor ionotropic, AMPA (Rattus norvegicus) (UniProt P19491+P19492+P19493+P19490); assay: Concentration of drug giving a 2-fold increase of the magnitude of the current induced by Ionotropic glutamate receptor AMPA (30 uM) and measured in Xenopus Oocytes expressing Rat Cortex AMPA Receptors; format: functional, cell-based
[2] = target: T1, Glutamate receptor ionotropic, AMPA (Rattus norvegicus); assay: concentration of drug giving a 5-fold increase of the magnitude of the current induced by Ionotropic glutamate receptor AMPA (30 uM) and measured in Xenopus Oocytes expressing Rat Cortex AMPA Receptors; format: functional, cell-based
[3] = organism: Rattus norvegicus; assay: Effect on duration of the postsynaptic excitatory potentials induced by electric stimulation in rat hippocampal slices; format: functional, Hippocampus
[4] = Ratio between the D50 value and the A50 value; format: functional
[5] = organism: Rattus norvegicus; assay: Effect on amplitude of the postsynaptic excitatory potentials induced by electric stimulation in rat hippocampal slices; format: functional, Hippocampus
[6] = organism: Rattus norvegicus; assay: Residual insulin release from rat pancreatic islets incubated in the presence of an insulinotropic […] glucose concentration and at a 50 uM concentration of drug; format: functional
[7] = Partition coefficient was measured in between 1-octanol and aqueous buffer solution of pH 7.4; format: physicochemical; settings: 1-octanol/aqueous buffer
[8] = organism: Rattus norvegicus; assay: Concentration for 50 percent increase of the duration (D50) of the postsynaptic excitatory potentials induced by electric stimulation in rat hippocampal slices; format: functional, Hippocampus
[9] = organism: Rattus norvegicus; assay: Concentration for 50 percent increase of the amplitude (A50) of the postsynaptic excitatory potentials induced by electric stimulation in rat hippocampal slices; format: functional, Hippocampus

SMILES | EC2x [1] [µM] | EC5X [2] [µM] | further results
CC1=NS(=O)(=O)c2cccnc2N1C | 800 | > 1000 | –
CCN1CN(CC)S(=O)(=O)c2ncccc21 | 87 | 220 | –
O=S1(=O)c2cnccc2NCN1c1ccccc1 | > 100 | > 100 | –
CCCC1Nc2ccncc2S(=O)(=O)N1 (stereo not given) | > 1000 | > 1000 | –
CCN1CNS(=O)(=O)c2cnccc21 | 55 | 195 | D50 [3]: 137 µM; Ratio [4]: 0.6; A50 [5]: 222 µM
CCCCN1CNS(=O)(=O)c2cnccc21 | 800 | > 1000 | –
CN1CN(C)S(=O)(=O)c2ncccc21 | 39 | 133 | –
CC1Nc2ncccc2S(=O)(=O)N1 (stereo not given) | > 1000 | > 1000 | RIS [6]: 94.8%; logD [7]: 0.35
CCC1Nc2ccncc2S(=O)(=O)N1 (stereo not given) | > 1000 | > 1000 | –
CC(C)N1CNc2ccncc2S1(=O)=O | > 300 | > 300 | –
CN1CN(C)S(=O)(=O)c2cnccc21 | 300 | > 1000 | –
O=S1(=O)N=CNc2cccnc21 | > 1000 | > 1000 | –
CC1=Nc2ccc(Cl)cc2S(=O)(=O)N1 [DIAZOXIDE] | 448 | > 1000 | RIS [6]: 28.8%; D50 [8]: >500 µM; A50 [9]: >500 µM
O=S1(=O)c2cnccc2NCN1C1CCCCC1 | > 100 | > 100 | –
CC1=NS(=O)(=O)c2cnccc2N1C(C)C | 500 | 1200 | –
CN1CNS(=O)(=O)c2ncccc21 | 21 | 51 | D50 [3]: 48 µM; Ratio [4]: 0.6; A50 [5]: 79 µM
CC1=NS(=O)(=O)c2ncccc2N1 | 400 | 900 | RIS [6]: 98.7%; logD [7]: -0.91
CC1=NS(=O)(=O)c2cnccc2N1 | > 1000 | > 1000 | RIS [6]: 100%; logD [7]: -0.41
CC1Nc2ccncc2S(=O)(=O)N1 (stereo not given) | 500 | > 1000 | RIS [6]: 93.6%; logD [7]: 0.13

SMILES | EC2x [1] [µM] | EC5X [2] [µM] | further results
CCCN1CN(C)c2ccncc2S1(=O)=O | > 1000 | > 1000 | –
CN1CNc2ccncc2S1(=O)=O | > 1000 | > 1000 | –
O=S1(=O)NCNc2ncccc21 | > 1000 | > 1000 | –
CCC1NS(=O)(=O)c2cnccc2N1C (stereo not given) | 800 | > 1000 | –
CC(C)C(C)NC1=NS(=O)(=O)c2cnccc2N1 (stereo not given) | > 1000 | > 1000 | RIS [6]: 8.6%
CC(C)N1CNS(=O)(=O)c2ncccc21 | 27 | 41 | –
O=S1(=O)N=C(C(F)(F)F)Nc2ccncc21 | > 1000 | > 1000 | –
CCCNC1=NS(=O)(=O)c2cnccc2N1 | > 1000 | > 1000 | RIS [6]: 57.7%
CC(C)N1CN(C)S(=O)(=O)c2cnccc21 | > 1000 | > 1000 | –
CC(C)N1CNS(=O)(=O)c2cnccc21 | 94 | 237 | RIS [6]: 101%
O=S1(=O)N=CNc2ccncc21 | > 1000 | > 1000 | –
O=S1(=O)NCN(C2CCCCC2)c2ccncc21 | > 1000 | > 1000 | –
CC1NS(=O)(=O)c2cnccc2N1C (stereo not given) | 150 | 450 | –
CC1=NS(=O)(=O)c2cnccc2N1C | 250 | 800 | –
CC(C)C1Nc2ccncc2S(=O)(=O)N1 (stereo not given) | > 1000 | > 1000 | –
CCC(C)NC1=NS(=O)(=O)c2cnccc2N1 (stereo not given) | > 1000 | > 1000 | RIS [6]: 9.4%
O=S1(=O)NC(C2CCCCC2)Nc2ccncc21 (stereo not given) | > 1000 | > 1000 | –
NC1=NS(=O)(=O)c2cnccc2N1 | > 1000 | > 1000 | RIS [6]: 104%
O=S1(=O)NCNc2cccnc21 | 300 | 1100 | –

SMILES | EC2x [1] [µM] | EC5X [2] [µM] | further results
CN1CNS(=O)(=O)c2cccnc21 | 200 | 500 | –
CCC1=NS(=O)(=O)c2cnccc2N1 | > 1000 | > 1000 | –
O=S1(=O)N=CNc2ncccc21 | > 1000 | > 1000 | –
CC1Nc2ccncc2S(=O)(=O)N1C (stereo not given) | 214 | 381 | –
CCCN1CNS(=O)(=O)c2cnccc21 | 300 | 805 | –
CCC(CC)C1Nc2ccncc2S(=O)(=O)N1 (stereo not given) | > 1000 | > 1000 | –
CN1CNS(=O)(=O)c2cnccc21 | 63 | 283 | RIS [6]: 95.8%; D50 [3]: 130 µM; Ratio [4]: 0.6; A50 [5]: 216 µM
CN1CNc2cccnc2S1(=O)=O | 341 | 766 | –
O=S1(=O)NC(c2ccccc2)Nc2ccncc21 (stereo not given) | > 1000 | > 1000 | –
CCN1C=NS(=O)(=O)c2ncccc21 | 96 | 186 | –
CC1Nc2cccnc2S(=O)(=O)N1 (stereo not given) | 114 | 270 | RIS [6]: 81%; D50 [3]: 100 µM; Ratio [4]: 0.65; logD [7]: -0.2; A50 [5]: 154 µM
CC1=NS(=O)(=O)c2cccnc2N1 | > 1000 | > 1000 | RIS [6]: 92.8%; logD [7]: -0.25
CCCCCN1CNc2ccncc2S1(=O)=O | > 100 | > 100 | –
NS(=O)(=O)c1cc2c(cc1Cl)NC(C1CC3C=CC1C3)NS2(=O)=O (stereo not given) [CYCLOTHIAZIDE] | 1.6 | 9.8 | D50 [3]: >300 µM; A50 [5]: >300 µM
CN1C=NS(=O)(=O)c2ncccc21 | 265 | 645 | –
O=S1(=O)NCN(CC(F)(F)F)c2ccncc21 | 110 | 215 | –
COc1ccc(C(=O)N2CCCC2=O)cc1 | 1440 | > 3000 | D50 [3]: >2000 µM
O=S1(=O)NCNc2ccncc21 | > 1000 | > 1000 | –
CCN1CN(C)S(=O)(=O)c2ncccc21 | 38 | 96 | –
